Consider one compound from ChEMBL document CHEMBL4616680, “Shedding X-ray Light on the Role of Magnesium in the Activity of Mycobacterium tuberculosis Salicylate Synthase (MbtI) for Drug Design” (J Med Chem, 2020).

This test has as its system MRC5. Briefly: Cytotoxicity in human MRC5 cells. The class given is cell-based.

Regarding `N#Cc1cccc(-c2ccc(C(=O)O)o2)c1`, the 50% inhibitory concentration (IC50) is over 100 µM.
